The text below walks through data of PMC7765098, “Non-Steroidal Anti-Inflammatory Drugs Increase Cisplatin, Paclitaxel, and Doxorubicin Efficacy against Human Cervix Cancer Cells” (Pharmaceuticals, 2020).

Where two headings read alike, the source gives them in different places. A value given as a limit tells only on which side of the number the result lay.

The test system of experiment [1] is HeLa MCTS. Put plainly: HeLa multi-cellular tumor spheroid (MCTS) growth, preventive and curative protocols. The experiment is classed as cell-based, human. On the procedure: HeLa, SiHa, and U373 (1 × 10^5 cells/mL) were seeded onto 2% (w/v) agarose-coated culture dishes in 5 mL DMEM. […] The growth of each MCTS was analyzed by fitting data to a logistic function for exponential growth using the Origin 8 software (Northampton MA, USA).
(§1) The combination effect of NSAIDs and chemotherapy drugs on proliferation was also analyzed by determining the resistance index ratio (RI) and the combination index (CI) value.

Experiment [2] concerns 3T3 fibroblasts. Put plainly: Bidimensional 3T3 fibroblast proliferation (MTT assay). The experiment is classed as cell-based, mouse. To be noted: read-out: IC50, bidimensional 3T3 cell growth. Here is the method:
(§2) For cellular proliferation with and without drugs, the cell lines (20 × 10^3 cells/well) were grown as bidimensional in 96-well plates containing Dulbecco’s Modified Eagle’s Medium (DMEM) (Sigma-Aldrich) for 24 h.
as §1

For experiment [3], the system named is HeLa cells. Put plainly: Bidimensional HeLa cell proliferation (MTT assay), drugs alone or combined. The class given is cell-based, human. To be noted: for IC50: read-out: IC50, bidimensional HeLa cell growth; for decrement of the IC50 value: bidimensional HeLa, presence of either NSAID (celecoxib or DMC) vs monotherapy. On the procedure: as §2, §1
Experiment [4] has as its system MCF-10A mammary gland cells. Put plainly: Bidimensional MCF-10A cell proliferation (MTT assay). The settings on record: read-out: IC50, bidimensional MCF-10A cell growth. The experiment is classed as cell-based, human. Here is the method:
as §2

Experiment [5] concerns OxPhos flux in HeLa cells. To be noted: vs. non-treated cells; cited from earlier work.
In experiment [6] the test system is HFF1 fibroblasts. Put plainly: Bidimensional HFF1 fibroblast proliferation (MTT assay). The settings on record: read-out: IC50, bidimensional HFF1 cell growth. The class given is cell-based. On the procedure:
as §2

Experiment [7] relates to glycolysis flux in HeLa cells. Briefly: Glycolytic flux (lactate production) in HeLa cells. The experiment is classed as cell-based, human. To be noted: 5 µM celecoxib, 2 µM cisplatin, 15 µM paclitaxel, alone; 24 h exposure. On the procedure: Glycolysis was started by adding 5 mM glucose (Sigma-Aldrich). Cellular samples were collected after 0 and 10 min of incubation, swiftly mixed with 30% (w/v) of cold perchloric acid, and centrifuged at 3500 rpm for 5 min. Supernatants were neutralized with 1N KOH/100 mM Tris. Cells were also incubated with 2-deoxyglucose (2-DG, 20 mM) (Sigma-Aldrich) to prevent lactate production by glycogen degradation. Lactate production was determined by the lactate dehydrogenase (Roche, Mannheim, Germany) coupled assay registering the NADH formation at 340 nm.

For experiment [8], the system named is HeLa cells. Put plainly: Cell invasiveness assay (Boyden chamber), HeLa. The experiment is classed as cell-based, human. To be noted: celecoxib (5 µM), paclitaxel (15 µM), cisplatin (2 µM), alone or combined, 24 h. On the procedure:
The lower compartment was filled with serum-free DMEM. After 24 h at 37 °C, the invasive cells found in the lower compartment were loaded with 60 nM calcein AM (acetomethylester) for 60 min.

The subject of experiment [9] is OxPhos flux in HeLa cells. Briefly: OxPhos flux (oligomycin-sensitive oxygen consumption) in HeLa cells. The experiment is classed as cell-based, human. The settings on record: for OxPhos flux decrease: 5 µM celecoxib, 2 µM cisplatin, 15 µM paclitaxel, 24 h exposure; for OxPhos (mitochondrial flux) decrease, summary in Discussion: celecoxib or DMC alone, or combined with chemotherapy drugs.
Procedure: For total oxygen consumption and OxPhos fluxes, HeLa, SiHa, or U373 cells or 3T3 fibroblasts (1 mg protein/mL), cultured for 24 h with the indicated drugs, were harvested and further incubated at 37 °C in air-saturated KR buffer and under constant agitation.

In experiment [10] the test system is COX-2. To be noted: at 100 µM; cited from earlier work.
Setting [11] is: drug alone, added at the beginning of culture, determined at day 20 of growth, read-out: IC50, tridimensional HeLa MCTS, Preventive.
Where [12] appears, read: drug alone, added once spheroids were formed (day 10), determined at day 20 of growth, read-out: IC50, tridimensional HeLa MCTS, Curative.
Setting [13] is: drug alone, 24 h of drug exposure, non-cancer.
Setting [14] is: drug alone, 24 h of drug exposure.
Where [15] appears, read: Homo sapiens, HeLa, 480 h, read-out: IC50, tridimensional HeLa MCTS, Preventive.
Where [16] appears, read: Homo sapiens, HeLa, read-out: IC50, tridimensional HeLa MCTS, Curative.
[17] abbreviates: Homo sapiens, HeLa, drug alone, 24 h of drug exposure.
Setting [18] is: Homo sapiens, MCF-10A, drug alone, 24 h of drug exposure, non-cancer.
[19] abbreviates: Homo sapiens, HeLa, 480 h, drug alone, added at the beginning of culture, determined at day 20 of growth, read-out: IC50, tridimensional HeLa MCTS, Preventive.
Setting [20] is: Homo sapiens, HeLa, drug alone, added once spheroids were formed (day 10), determined at day 20 of growth, read-out: IC50, tridimensional HeLa MCTS, Curative.
Where [21] appears, read: Homo sapiens, HFF-1, drug alone, 24 h of drug exposure, non-cancer.
Setting [22] is: Mus musculus, NIH3T3, drug alone, 24 h of drug exposure, non-cancer.

For the molecule `N.N.O=C([O-])C1(C(=O)[O-])CCC1.[Pt+2]` [Carboplatin, carboplatin], the IC50 in experiment [1] (setting [11]) is 0.165 ± 0.028 µM; in experiment [1] (setting [12]) it was 287 ± 43 µM; in [2] (setting [13]), greater than 5000 µM; in experiment [3] (setting [14]), 1000 ± 400 µM; in [4] (setting [13]), greater than 1000 µM. Also, in experiment [3] (setting [14]), the “IC50, bidimensional HeLa cell growth” value is “in the mM range”.
Consider `Cc1c(C)c2c(c(C)c1OC(=O)CCC(=O)O)CC[C@@](C)(CCC[C@H](C)CCC[C@H](C)CCCC(C)C)O2` [α-TOS, α-tocopheryl succinate], for which the IC50 in experiment [1] (setting [11]) was 0.01 ± 0.004 µM; in [1] (setting [12]), 50 ± 11 µM; in experiment [3] (setting [14]), 1.2 ± 0.46 µM.
Regarding Casiopeina II-gly [CasII-gly], the “increase of cisplatin toxicity (decrease of cisplatin IC50)” value in experiment [1] (HeLa MCTS) was 84–96%. Further, the concentration for half-maximal inhibition (IC50) was 0.03 ± 0.0075 µM in [1] (setting [11]); 106 ± 2 µM in experiment [1] (setting [12]); 9 ± 2 µM in experiment [2] (setting [13]); 1.5 ± 0.9 µM in experiment [3] (setting [14]); 17 ± 3 µM in [4] (setting [13]). Further, the “decrease of IC50 values of cisplatin, paclitaxel, and doxorubicin” value in experiment [1] (tridimensional HeLa cultures) was 62–96%; in [3] (bidimensional HeLa cultures, co-added drug vs monotherapy), 19–54%.
As to `Cc1ccc(-c2cc(C(F)(F)F)nn2-c2ccc(S(N)(=O)=O)cc2)cc1` [Celecoxib, celecoxib], in experiment [1] (HeLa MCTS, both preventive and curative protocols), the “decrease of chemotherapy drug IC50 values” is greater than 70%. For the same molecule, the IC50 was 0.001 ± 0.0003 µM in [1] (setting [15]); 7.5 ± 2 µM in experiment [1] (setting [16]); 96 ± 13 µM in experiment [6] (Homo sapiens, HFF-1, 24 h); 119 ± 7 µM in [2] (Mus musculus, NIH3T3, 24 h); 55 ± 9 µM in experiment [3] (setting [17]); greater than 100 µM in [4] (setting [18]). Besides, in experiment [5], the “OxPhos and mitochondrial membrane potential affected” value is on record as 50–80%. In [7], the glycolysis decrease is 36–50%. For the same molecule, in experiment [8], the “decrease of invasiveness potential” value is reported as “did not alter”. The OxPhos flux decrease in experiment [9] (alone or in combination) is recorded as 36–50%. The “OxPhos (mitochondrial flux) decrease, summary in Discussion” value in experiment [9] was 50–60%.
For the molecule `COc1cccc2c1C(=O)c1c(O)c3c(c(O)c1C2=O)C[C@@](O)(C(=O)CO)C[C@@H]3O[C@H]1C[C@H](N)[C@H](O)[C@H](C)O1` [Doxorubicin, doxorubicin], the IC50 in experiment [1] (setting [19]) turned out to be 0.048 ± 0.007 µM; in experiment [1] (setting [20]), 86 ± 5 µM; in [6] (setting [21]) it was 65 ± 19 µM; in experiment [2] (setting [22]), 51 ± 18 µM; in [3] (setting [17]) it was 26 ± 6 µM; in experiment [4] (setting [18]) it was 82 ± 25 µM. For the same molecule, the “decrement of the IC50 value” in experiment [3] is given as 38–66%.
As for `Nc1ccn([C@@H]2O[C@H](CO)[C@@H](O)C2(F)F)c(=O)n1` [Gemcitabine, gemcitabine], the IC50 in [1] (setting [19]) was 0.065 ± 0.017 µM; in experiment [1] (setting [20]), 128 ± 20 µM; in experiment [2] (setting [22]), greater than 2000 µM; in experiment [3] (setting [17]), 30 ± 5 µM; in experiment [4] (setting [18]) it was greater than 1000 µM.
Consider “methoxy-tocopheryl oxyacetic acid [M-TEA]”, for which the IC50 in [3] (setting [14]) was 1.2 ± 0.48 µM.
Consider `CC(=O)O[C@H]1C(=O)[C@@]2(C)[C@H]([C@H](OC(=O)c3ccccc3)[C@]3(O)C[C@H](OC(=O)[C@H](O)[C@@H](NC(=O)c4ccccc4)c4ccccc4)C(C)=C1C3(C)C)[C@]1(OC(C)=O)CO[C@@H]1C[C@@H]2O` [Paclitaxel], for which the half-inhibitory concentration (IC50) in experiment [1] (setting [19]) stood at 0.016 ± 0.005 µM; in [1] (setting [20]), 26.5 ± 0.1 µM; in [6] (setting [21]), 68 ± 30 µM; in [2] (setting [22]), 80 ± 12 µM; in experiment [3] (setting [17]), 21 ± 4 µM; in experiment [4] (setting [18]), 100 ± 18 µM. Moreover, the glycolysis decrease in experiment [7] is reported as 40–60%. For the same molecule, the “decrease of invasiveness potential” value in experiment [8] was “did not alter”. The OxPhos flux decrease entry in [9] (alone or in combination) is listed as “did not significantly affect”.
Regarding `Cc1c(C)c2c(c(C)c1OCC(=O)O)CC[C@@](C)(CCC[C@H](C)CCC[C@H](C)CCCC(C)C)O2` [α-TEA, α-tocopherol ether linked acetic acid analog], the results for the 50% inhibitory concentration (IC50) in experiment [1] (setting [19]), in experiment [1] (setting [20]) and in experiment [3] (setting [17]) were 0.025 ± 0.006 µM, 30 ± 2 µM and 4.7 ± 0.7 µM, respectively.
`O=P1(N(CCCl)CCCl)NCCCO1` (stereo not shown) [Cyclophosphamide, cyclophosphamide]: the half-maximal inhibitory concentration (IC50) in experiment [1] (setting [15]) was 0.136 ± 0.087 µM; in [1] (setting [16]) it was 315 ± 30 µM; in experiment [2] (Mus musculus, NIH3T3, 24 h), greater than 1000 µM; in [3] (Homo sapiens, HeLa, 24 h), 16 ± 3 µM; in experiment [4] (Homo sapiens, MCF-10A, 24 h) it was 102 ± 35 µM.
Turning to `Cc1ccc(C)c(-c2cc(C(F)(F)F)nn2-c2ccc(S(N)(=O)=O)cc2)c1` [DMC, 2,5-dimethylcelecoxib], the figures for the “lowering of cisplatin and paclitaxel IC50 values” in experiment [1] (HeLa MCTS curative protocol) and in [1] (HeLa MCTS preventive protocol) were 45–73% and 52–55%, respectively. The IC50 is 0.01 ± 0.002 µM in [1] (setting [19]); 32 ± 10 µM in experiment [1] (setting [20]); 44 ± 11 µM in experiment [6] (setting [21]); 69 ± 8.5 µM in experiment [2] (setting [22]); 48 ± 2 µM in experiment [3] (setting [17]); greater than 100 µM in experiment [4] (setting [18]). Also, the COX-2 activity blocked in [10] is listed as 15%. Moreover, in [9] (Homo sapiens, HeLa, DMC (15 µM), paclitaxel (20 µM), cisplatin (5 µM), alone or in combination, 24 h, n=1 (Figure S3)), the inhibition at 15 µM turned out to be 60%. Besides, in experiment [9], the “OxPhos (mitochondrial flux) decrease, summary in Discussion” value is 50–60%.
In the case of `N.N.[Cl][Pt][Cl]` [Cisplatin, cisplatin], the IC50 was determined as 0.05 ± 0.017 µM in [1] (setting [11]); 270 ± 20 µM in [1] (setting [12]); 59 ± 26 µM in [6] (setting [13]); 15 ± 3 µM in experiment [3] (setting [14]); 82 ± 4 µM in experiment [4] (setting [13]). Moreover, in experiment [7], the glycolysis decrease was 40–60%. For the same molecule, the “decrement of the IC50 value” in experiment [3] was 38–66%. Further, in [8], the “decrease of invasiveness potential” value is listed as “did not alter”. Also, the OxPhos flux decrease result in [9] (alone or in combination) is “did not significantly affect”.
